This note sets out measurements from US20050065212A1, “Use of at least one 10-hydroxy-2-decenoic acid derivative in compositions for treating the cuteous signs of aging” (priority 2001, published 2005).

The subject of assay [1] is interstitial collagenase (type-1 metalloprotease, MMP-1) production by HT1080 cells. Description: Production of interstitial collagenase in HT1080 cell culture (ELISA, Biotrack human MMP1). The note with it: for percentage of reduction of the production of interstitial collagenase relative to the control: compound 25 μg/ml, culture medium 96 hours after contact. The class given is cell-based. As to the method: (§1) The effect of 2-dimethylaminoethyl 10-hydroxy-2-decenoate on the production of interstitial collagenase was evaluated in a culture model of A2058 cells (derived from human melanomas: Templeton N. S. et al. 1990; Cancer Res., 50:5431-5431) and in a culture model of HT1080 cells derived from a human fibrosarcoma (American type Culture Collection: reference CCL 121).
(§2) The A2058 cells constitutively express and secrete type-1 metalloprotease. The HT1080 cells express little type-1 metalloprotease in the basal state, but this expression is increased in the presence of TPA.
(§3) The cells are incubated in an MEM medium without phenol red, containing amino acids at a concentration of 2 mM, sodium pyruvate at a concentration of 1 mM and calf serum containing 10% […]. They are then cultured at a density of 20 000 cells per well in the 24 wells of a multiwell plate.
(§4) Twenty-four hours after culturing, the cells are placed in contact with 2-dimethylaminoethyl 10-hydroxy-2-decenoate at a concentration of 25 μg/ml. The production of the interstitial collagenase is evaluated 96 hours later in the culture medium. This is performed using an ELISA kit (Biotrack human MMP1; Amersham).
(§5) The results are expressed as a percentage of reduction of the production of interstitial collagenase relative to the control, i.e. relative to culturing performed under the same conditions in the absence of derivative.
A general note: ELISA stands for enzyme-linked immunosorbent assay.

The test system of assay [2] is interstitial collagenase (type-1 metalloprotease, MMP-1) production by A2058 cells. Description: Production of interstitial collagenase in A2058 cell culture (ELISA, Biotrack human MMP1). The class given is cell-based. The method, then:
as §1, §2, §3, §4, §5

In the case of `CN(C)CCOC(=O)/C=C/CCCCCCCO` [2-dimethylaminoethyl 10-hydroxy-2-decenoate], the “percentage of reduction of the production of interstitial collagenase relative to the control” value came out at 50% in assay [1] (HT1080 with TPA); 55% in assay [1] (HT1080 without TPA); 70% in assay [2] (A2058 cells, compound 25 μg/ml, culture medium 96 hours after contact). Moreover, the “effect on production of interstitial collagenase (in words)” value in assay [1] (HT61080 cells as printed, dose of 25 μg/ml) was “reduces the production of interstitial collagenase”; in assay [2] (A 2058 cells, dose of 25 μg/ml), “reduces the production of interstitial collagenase”.
